Reference: PMC11133627, “CATH-2-derived antimicrobial peptide inhibits multidrug-resistant Escherichia coli infection in chickens” (Frontiers in Cellular and Infection Microbiology, 2024)
Ends that are not written are not given here.

Tests used:
E. coli (ATCC 8739) [1] = assay: microbe, parasite or virus in culture; type: cell-based, Escherichia coli; conditions: for MIC against E. coli ATCC 8739: ATCC 8739, 18 h; for MBC against E. coli ATCC 8739: ATCC 8739, 24 h
Procedure: (§1) The minimum inhibitory concentrations (MICs) of the AMPs were determined using the microbroth dilution technique ([van Harten et al., 2021]). One hundred microliters of bacterial suspension at a concentration of 1×10^6 CFU/mL was pipetted into a 96-well plate. Then, 100 μL of AMP or gentamicin at various concentrations was added, while the bacterial suspension without AMPs and blank medium were used as controls.

[2] = test system: E. coli clinical isolate E12; assay: microbe, parasite or virus in culture; type: cell-based, Escherichia coli; conditions: for MIC against E. coli E12: clinical isolate E12, 18 h; for MBC against E. coli E12: clinical isolate E12, 24 h
Procedure: as §1

[3] = test system: E. coli clinical isolate E14; assay: microbe, parasite or virus in culture; type: cell-based, Escherichia coli; conditions: for MIC against E. coli E14: clinical isolate E14, 18 h; for MBC against E. coli E14: clinical isolate E14, 24 h
Procedure: as §1

[4] = test system: E. coli clinical isolate E16; assay: microbe, parasite or virus in culture; type: cell-based, Escherichia coli; conditions: for MIC against E. coli E16: clinical isolate E16, 18 h; for MBC against E. coli E16: clinical isolate E16, 24 h
Procedure: as §1

[5] = test system: E. coli clinical isolate E18; assay: microbe, parasite or virus in culture; type: cell-based, Escherichia coli; conditions: for MIC against E. coli E18: clinical isolate E18, 18 h; for MBC against E. coli E18: clinical isolate E18, 24 h
Procedure: as §1

[6] = test system: E. coli clinical isolate E9; assay: microbe, parasite or virus in culture; type: cell-based, Escherichia coli; conditions: for MIC against E. coli E9: clinical isolate E9, 18 h; for MBC against E. coli E9: clinical isolate E9, 24 h
Procedure: as §1

[7] = test system: E. coli clinical isolate E1; assay: microbe, parasite or virus in culture; conditions: for MIC against E. coli E1: clinical isolate E1, 18 h; for MBC against E. coli E1: clinical isolate E1, 24 h
Procedure: as §1

E. coli (ATCC 8739) [8] = type: cell-based, Escherichia coli; conditions: ATCC 8739, 1 h
Procedure: The MICs of the AMPs against E. coli (ATCC 8739) at different temperatures and physiological salt concentrations were evaluated. The thermal stability of the AMPs was assessed by incubating them at a concentration of 500 μg/mL for 1h at 0, 37, and 100°C, using untreated AMPs as a control. The salt ion stability of the AMPs was determined by incubating them at a concentration of 500 μg/mL in solutions of NaCl (150 mM), KCl (4.5 mM), MgCl2 (1 mM), and CaCl2 (2.5 mM) for 1h, using untreated samples as controls. The changes in the MICs of the AMPs were assessed following these experimental procedures.

E. coli (ATCC 8739) [9] = assay: Drug-sensitivity test (paper disc, inhibition zone); type: cell-based, Escherichia coli; set-up: key: R: resistant strains; I: intermediate strains; S: sensitive strains; conditions: 6 mm antibiotic paper on LB agar, 1×10^6 CFU/mL, 24h 37°C, inhibition zone diameter
Procedure: (§2) E. coli (ATCC 8739) and clinical isolates of E. coli (E1, E9, E12, E14, E16, and E18) were stored at the Animal Biochemical Laboratory of Shanxi Agricultural University and grown in Luria-Bertani (LB) broth as previously reported ([Zhao et al., 2021]). Circular 6 mm paper pieces were prepared with filter paper and autoclaved for sterilization. […] Then, 0.5 mL of antibiotic solution was added to 100 sterilized papers. Subsequently, the paper pieces were fully infiltrated and dried in a vacuum drying oven to produce antibiotic susceptibility papers. The E. coli strain was retrieved from the -20°C freezer and activated by incubating it on LB agar media at 37°C for 24h. Individual colonies were selected and transferred to LB liquid media. Thereafter, the E. coli suspension was obtained by shaking at 37°C and 160 r/min for 18h. The obtained suspension was centrifuged at 5000 r/min for 5min, after which the supernatant was discarded, and the bacteria were resuspended in fresh medium to a concentration of 1×10^6 CFU/mL. Two hundred microliters of the bacterial suspension mentioned above was spread evenly onto LB agar medium. Then, the antibiotic susceptibility papers were placed on the medium surface using sterile tweezers. After 24h of incubation at 37°C, the diameter of the inhibition zone was measured to determine the susceptibility of E. coli to antibiotics.

[10] = test system: E. coli clinical isolate E18; assay: as above; type: cell-based, Escherichia coli; set-up: key: R: resistant strains; I: intermediate strains; S: sensitive strains; conditions: 6 mm antibiotic paper on LB agar, 1×10^6 CFU/mL, 24h 37°C, inhibition zone diameter
Procedure: as §2

[11] = test system: E. coli clinical isolate E9; assay: as above; type: cell-based, Escherichia coli; set-up: key: R: resistant strains; I: intermediate strains; S: sensitive strains; conditions: 6 mm antibiotic paper on LB agar, 1×10^6 CFU/mL, 24h 37°C, inhibition zone diameter
Procedure: as §2

[12] = test system: E. coli clinical isolate E1; type: cell-based; set-up: key: R: resistant strains; I: intermediate strains; S: sensitive strains; conditions: 6 mm antibiotic paper on LB agar, 1×10^6 CFU/mL, 24h 37°C, inhibition zone diameter
Procedure: as §2

[13] = test system: E. coli clinical isolate E12; assay: Drug-sensitivity test (paper disc, inhibition zone); type: cell-based, Escherichia coli; set-up: key to Drug sensitivity of E. coli E12: R: resistant strains; I: intermediate strains; S: sensitive strains; conditions: 6 mm antibiotic paper on LB agar, 1×10^6 CFU/mL, 24h 37°C, inhibition zone diameter
Procedure: as §2

[14] = test system: E. coli clinical isolate E14; assay: as above; type: cell-based, Escherichia coli; set-up: key to Drug sensitivity of E. coli E14: R: resistant strains; I: intermediate strains; S: sensitive strains; conditions: 6 mm antibiotic paper on LB agar, 1×10^6 CFU/mL, 24h 37°C, inhibition zone diameter
Procedure: as §2

[15] = test system: E. coli clinical isolate E16; assay: as above; type: cell-based, Escherichia coli; set-up: key to Drug sensitivity of E. coli E16: R: resistant strains; I: intermediate strains; S: sensitive strains; conditions: 6 mm antibiotic paper on LB agar, 1×10^6 CFU/mL, 24h 37°C, inhibition zone diameter
Procedure: as §2

E. coli (E16) = assay: Chicken infection with MDR E. coli; type: in vivo
Procedure: Except for the blank control group injected with 500 μL of normal saline, the other four groups were injected with 500 μL of 3×10^9 CFU/mL E. coli (E16) into the pectoral muscles. […] Clinical symptoms and were observed and documented for the chickens in each group after infection. After 72h, the chickens in each group were euthanized and examined for internal organ damage. Paraffin sections were prepared for microscopic examination of pathological changes. Under sterile conditions, 1 g samples of heart, liver, and spleen were collected, and each sample was supplemented with 20 mL of sterile PBS. After thorough grinding, the sample was diluted to the appropriate multiple, and 100 μL of the diluent was spread onto LB agar medium. The plates were incubated for 24h, after which the colonies were counted.

| Molecule | MIC against E. coli ATCC 8739 (E. coli (ATCC 8739) [1]) | MBC against E. coli ATCC 8739 (E. coli (ATCC 8739) [1]) | MIC against E. coli E12 [2] | MBC against E. coli E12 [2] | MIC against E. coli E14 [3] | MBC against E. coli E14 [3] | MIC against E. coli E16 [4] | MBC against E. coli E16 [4] | MIC against E. coli E18 [5] | MBC against E. coli E18 [5] | MIC against E. coli E9 [6] | MBC against E. coli E9 [6] | MIC against E. coli E1 [7] | MIC against E. coli (ATCC 8739), Salt Stability CaCl2 (2.5 mM) (E. coli (ATCC 8739) [8]) | MIC against E. coli (ATCC 8739), Salt Stability KCl (4.5 mM) (E. coli (ATCC 8739) [8]) | MIC against E. coli (ATCC 8739), Salt Stability MgCl2 (1 mM) (E. coli (ATCC 8739) [8]) | MIC against E. coli (ATCC 8739), Salt Stability NaCl (150 mM) (E. coli (ATCC 8739) [8]) | MIC against E. coli (ATCC 8739), Thermal Stability 0°C (E. coli (ATCC 8739) [8]) | MIC against E. coli (ATCC 8739), Thermal Stability 37°C (E. coli (ATCC 8739) [8]) | MIC against E. coli (ATCC 8739), Thermal Stability 100°C (E. coli (ATCC 8739) [8]) | other results |
| --- | --- | --- | --- | --- | --- | --- | --- | --- | --- | --- | --- | --- | --- | --- | --- | --- | --- | --- | --- | --- | --- |
| RFGRFLRKIRFFRLK [C2-5] | 1 µg/mL | 1 µg/mL | 8 µg/mL | 8 µg/mL | 8 µg/mL | 8 µg/mL | 16 µg/mL | 16 µg/mL | 16 µg/mL | 32 µg/mL | 64 µg/mL | 128 µg/mL | 8 µg/mL | 8 µg/mL | 4 µg/mL | 4 µg/mL | 4 µg/mL | 1 µg/mL | 1 µg/mL | 4 µg/mL | MBC against E. coli E1 [7]: 8 µg/mL |
| RFGRHLRKIIRFRIK [C2-3] | 16 µg/mL | 16 µg/mL | 1 µg/mL | 1 µg/mL | 8 µg/mL | 8 µg/mL | 16 µg/mL | 64 µg/mL | 16 µg/mL | 32 µg/mL | 2 µg/mL | 4 µg/mL | 32 µg/mL | 8 µg/mL | 4 µg/mL | 4 µg/mL | 16 µg/mL | 16 µg/mL | 16 µg/mL | 8 µg/mL | MBC against E. coli E1 [7]: 64 µg/mL |
| CCN1CCN(c2cc3c(cc2F)c(=O)c(C(=O)O)cn3C2CC2)CC1 [enrofloxacin] |  |  |  |  |  |  |  |  |  |  |  |  |  |  |  |  |  |  |  |  | Drug sensitivity of E. coli ATCC 8739 (E. coli (ATCC 8739) [9]): S; Drug sensitivity of E. coli E18 [10]: R; Drug sensitivity of E. coli E9 [11]: R; Drug sensitivity of E. coli E1 [12]: R; Drug sensitivity of E. coli E12 [13]: R; Drug sensitivity of E. coli E14 [14]: R; Drug sensitivity of E. coli E16 [15]: R; 3-day mortality rate (E. coli (E16); 200 μg/mL, 500 μL into pectoral muscle 4h after 1.5×10^9 CFU E16): 50%; Survival rate compared with untreated group (in words) (E. coli (E16); 3 days): no difference in survival rate; Bacterial loads in the heart, liver and spleen (in words) (E. coli (E16); after 3 days of infection, vs infected untreated): affected only the heart bacterial load |
| RFGRFLRKIRRFRPK [CATH-2 (1-15), reference compound] | 64 µg/mL | 64 µg/mL | 8 µg/mL | 8 µg/mL | 64 µg/mL |  | 32 µg/mL | 64 µg/mL | 64 µg/mL | 64 µg/mL | 4 µg/mL | 4 µg/mL |  | 64 µg/mL | 16 µg/mL | 16 µg/mL | 32 µg/mL | 64 µg/mL | 64 µg/mL | 32 µg/mL |  |
| RFGRNLRKIRRFWPK [C2-4] | 16 µg/mL | 16 µg/mL | 16 µg/mL | 32 µg/mL | 32 µg/mL | 64 µg/mL | 64 µg/mL | 64 µg/mL | 128 µg/mL | 128 µg/mL | 64 µg/mL | 128 µg/mL | 128 µg/mL | 32 µg/mL | 32 µg/mL | 16 µg/mL | 32 µg/mL | 16 µg/mL | 16 µg/mL | 16 µg/mL | MBC against E. coli E1 [7]: 128 µg/mL |
